These results are taken from paper PMC12186843, “Targeting GABAergic Hypofunction Associated with Schizophrenia: Identification of α1β2γ2GABA‑A Receptor Ligands with Neuroprotective and Antipsychotic Properties” (ACS Chemical Neuroscience, 2025).

As a reminder, the share remaining is what is left of the initial amount, in per cent. As usually defined, the EC50 is the concentration at which the effect is half-maximal. As usually defined, the Papp A→B is how fast a substance crosses the layer from the apical side. Higher therefore signals ready permeation. As a reminder, the Papp B→A is how fast a substance crosses the layer from the basolateral side. Broadly, the efflux ratio is a quotient of directional permeabilities that is used to spot active efflux. By Ki is commonly meant the dissociation constant of the complex between target and ligand, obtained from inhibition or displacement.

The test system of data set [1] is SH-SY5Y cells. The data set can be described thus: Intracellular calcium concentration after 6-OHDA (Fluo-4). As to conditions: 50 μM pretreatment 1 h, then 6-OHDA 250 μM 1 h. In kind it is cell-based, human. The protocol:
(§1) 7 (A). Effect of 6-Hydroxydopamine (6-OHDA) on intracellular calcium concentration [Ca^2+] determined by Fluo-4 AM. After pretreatment with tested compounds (50 μM) or vehicle (0.5% DMSO, v/v) for 1 h, the cells were incubated with 6-Hydroxydopamine (6-OHDA, 250 μM) for 1 h. 6-OHDA control: cells treated with 250 μM of 6-OHDA. […]. DMSO control: cells treated with 0.5% DMSO only. Data are presented as the mean ± SD from 2–3 independent experiments. Experiments were carried on with ImageXpress Micro XLS (Molecular Devices). (B) The level of ROS generation was determined by Cell ROX dye. After pretreatment with tested compounds (50 μM) or vehicle (0.5% DMSO, v/v) for 1 h, the cells were incubated with hydrogen peroxide (H2O2, 300 μM) for 1 h. H2O2 control: cells treated with H2O2 (300 μM). DMSO control: cells treated with 0.5% DMSO only. Data are presented as the mean ± SD from 2–3 independent experiments. Experiments were carried on with the ImageXpress Micro XLS (Molecular Devices).
The SH-SY5Y human neuroblastoma cell line was maintained according to established protocols. The cells, obtained from the American Type Culture Collection (ATCC), were cultured in Dulbecco’s Modified Eagle’s Medium (DMEM, high glucose; Thermo Fisher), supplemented with 10% fetal bovine serum (Thermo Fisher), 100 IU/ml penicillin (Merck), and 100 μg/mL streptomycin (Merck). They were grown in 75 cm^2 flasks (Nunc) at 37 °C in a humidified atmosphere containing 5% CO2. For compound evaluation, SH-SY5Y cells were plated in 96-well plates (Falcon) at a density of 2 × 10^4 cells per well. The cells were allowed to adhere and grow for 24 h in an incubator set to 37 °C and 5% CO2 before starting the experiments. Stock solutions of both test and reference compounds were prepared at a concentration of 10^–2 M. A minimum of 1 mg of each compound was dissolved in dimethyl sulfoxide (DMSO). Serial dilutions were made in DMSO, then further diluted in PBS, mixed, and added to the cell culture medium.
The intracellular Ca^2+ levels were assessed using a homogeneous cell-based assay with the Fluo-4 Direct Calcium Assay Kit (Thermo Fisher). Following incubation with the tested compounds, the supernatant was discarded, and the cells were incubated with 1 μM Fluo-4/AM in FluoroBrite DMEM (Thermo Fisher) for 1 h at 37 °C. The results were expressed as a percentage relative to the control (DMSO). Fluorescence intensity was recorded using the ImageXpress Micro XLS system (Molecular Devices).
On the technique in general: Calcium assays in cells follow changes in intracellular calcium, usually with a dye or a luminescent sensor.

Data set [2] in a line: Metabolic stability in human liver microsomes. The class given is in vitro ADME. The protocol: In Eppendorf tubes, potassium phosphate buffer (pH 7.4), a working solution of the test compound, and human liver microsomes (final concentration: 0.4 mg/mL, Sigma-Aldrich) were combined. The mixture was incubated at 37 °C with shaking for 15 min in a thermoblock. Following this, an NADPH regeneration system (Sigma-Aldrich) was added to the mixture, which was subsequently incubated with shaking at 37 °C for various time intervals (5, 15, 30, 60, 90, 120, 150, 180, 210, and 240 min). A control experiment was run in parallel, replacing the regeneration fraction with phosphate buffer. At the designated incubation times, an internal standard (levallorphan, Sigma-Aldrich) was added to each sample. To terminate the reaction, 70% perchloric acid (Sigma-Aldrich) was added, and the samples were centrifuged at 6000 rpm for 10 min at 4 °C. The resulting supernatants were collected and subjected to LC-MS/MS analysis. Each sample was analyzed in duplicate.

Data set [3] deals with SH-SY5Y cells. The data set can be described thus: PrestoBlue cell viability assay. In kind it is cell-based. To be noted: Table S2, 24 h. The protocol: Cell viability was determined using the Presto Blue reagent (ThermoFisher) following the manufacturer’s instructions.
(§2) 1. Cytotoxicity studies for selected compounds
Table S1. The viability of the cells SH-SY5Y after treatment with tested compounds for 24 the results are expressed as a percentage of dead cells with luminescence ToxiLight Assay. The results are expressed as a per cent of control with whole […]
percentage of live cells with fluorescence PrestoBlue Assay. The results are expressed as a per cent of vehicle (DMSO).

A short description of data set [4]: Metabolic stability in rat liver microsomes. In kind it is in vitro ADME.
The subject of data set [5] is SH-SY5Y cells. Description: ROS generation after hydrogen peroxide (CellROX). In kind it is cell-based, human. To be noted: 50 μM pretreatment 1 h, then H2O2 300 μM 1 h. The procedure: as §1
The SH-SY5Y human neuroblastoma cell line was maintained according to established protocols. […]
Cellular reactive oxygen species (ROS) levels were determined using the CellROX Deep Red Reagent (Thermo Fisher). […] The results were expressed as a percentage relative to the control (DMSO). Fluorescence intensity was measured using the ImageXpress Micro XLS system (Molecular Devices).

The subject of data set [6] is SH-SY5Y cells. Description: ToxiLight assay (cell membrane damage). In kind it is cell-based. To be noted: Table S1, 24 h. The procedure: Damage to the cell membrane was assessed using the bioluminescent ToxiLight bioassay (Lonza), a profound method for detecting cell toxicity. Following 24 h of treatment, 5 μL of the supernatant above the sediment was transferred to a 384-well plate (PerkinElmer). Subsequently, 20 μL of Adenylate Kinase Detection Reagent (AKDR) was added to each well. Luminescence was recorded after a 10 min incubation period using a POLARstar Omega plate reader (BMG Labtech). Results are presented as a percentage relative to the control sample (cells lysed), reflecting the proportion of dead cells compared to the control.
as §2
Table S1. The viability of the cells SH-SY5Y after treatment with tested compounds for 24 the results are expressed as a percentage of dead cells with luminescence ToxiLight Assay. The results are expressed as a per cent of control with whole lysis cells. N.C. not countable […]
Table S2. The viability of the cells SH-SY5Y after treatment with tested compounds for 24 h the results are expressed as a percentage of live cells with fluorescence PrestoBlue Assay. The results are expressed as a per cent of vehicle (DMSO). […]

The target in the next data set is T1, α1β2γ2 GABA-A receptor (Homo sapiens, UniProt P14867+P18507).
T1 construct: expressed in transfected cells
The data set can be described thus: Electrophysiological studies (QPatch16X automated patch-clamp), PAM efficacy. In kind it is cell-based. On the technique in general: Patch clamp records ionic current or voltage across a cell membrane.

Data set [7] is described as follows: Metabolic stability in mouse liver microsomes. The class given is in vitro ADME. On the technique in general: Liver microsomes are a subcellular fraction often used to study metabolism.
Data set [8] relates to P-glycoprotein (P-gp, MDR1). The data set can be described thus: A–B and B–A permeability assay in MDR1-MDCKII cell line. To be noted: dog. The protocol: (§3) The A–B and B–A permeability assay using the MDR1-MDCKII cell line was conducted at Eurofins Discovery according to a well-established protocol.
Another data set deals with MDR1-MDCKII cell line. The description is as above. To be noted: MDCK-MDR1 permeability assay. The protocol:
as §3

The next data set has as its target GABA-A receptor. Description: Radioligand binding at the GABA-A receptor. More on the design: species or system rat. To be noted: mean of two-three independent experiments; read-out: GABA-A Ki ± SEM. The protocol: The study was conducted in accordance with previously established protocols, and performed in duplicate. Rat brains were homogenized and prepared following the described methodologies. The assay was carried out directly on 96-well microplates containing 50 mM Tris-HCl buffer (pH 7.4) in a total volume of 300 μL. […] To determine nonspecific binding, 100 μM GABA was included in the mixture. The 96-well microplates were incubated at 0 °C for 10 min, followed by rapid filtration through FilterMate B glass fiber filters (PerkinElmer, USA) using a Harvester-96 MACH III FM (Tomtec, USA). The filters were gently dried in a microwave and sealed in plastic bags (PerkinElmer, USA). Each filter was then immersed in 10 mL of Ultima Gold MV liquid scintillation cocktail (PerkinElmer, USA). […] Ki values were calculated using the Cheng and Prusoff equation, and statistical analyses were conducted using GraphPad Prism (version 4.0, San Diego, CA, USA)

A further data set is described as follows: PAMPA permeability assay. The class given is in vitro ADME. To be noted: PBS pH 7.4, 100 μM, 5 h, zolpidem tested as tartrate. The procedure: PAMPA. The precoated PAMPA Plate System Gentest, obtained from Corning (Tewksbury, MA, USA), was used for the permeability study. The system includes a 96-well receiver filter plate precoated with structured phospholipid layers and a matching donor microplate. Stock solutions of the test compounds and reference drugs were prepared in PBS buffer (pH 7.4) at a final concentration of 100 μM. Each compound solution (200 μL) was added to the donor wells and incubated at room temperature for 5 h. The quantity of molecules that penetrated from the donor wells to the acceptor wells through the phospholipid membrane was determined using UPLC-MS spectrometry (Waters ACQUITY TQD system with the TQ Detector, Waters, Milford, USA) with an internal standard. Permeability coefficients (Pe, cm/s) were calculated according to the formula provided by the manufacturer.

For data set [9] the following is noted: literature value; cited from earlier work.

T1 sequence (P14867 28-456): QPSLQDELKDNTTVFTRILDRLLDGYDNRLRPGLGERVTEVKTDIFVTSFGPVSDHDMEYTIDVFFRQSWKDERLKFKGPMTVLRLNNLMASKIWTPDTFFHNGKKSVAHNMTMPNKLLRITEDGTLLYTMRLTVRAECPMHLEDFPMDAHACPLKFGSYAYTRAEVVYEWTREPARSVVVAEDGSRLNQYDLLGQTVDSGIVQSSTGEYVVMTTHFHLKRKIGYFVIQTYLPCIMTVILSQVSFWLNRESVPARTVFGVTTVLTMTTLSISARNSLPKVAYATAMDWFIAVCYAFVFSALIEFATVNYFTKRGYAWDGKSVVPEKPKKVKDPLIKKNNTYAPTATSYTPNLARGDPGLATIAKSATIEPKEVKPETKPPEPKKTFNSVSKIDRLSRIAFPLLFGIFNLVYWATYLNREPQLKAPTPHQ
T1 sequence (P47870 25-512 partner limits assumed): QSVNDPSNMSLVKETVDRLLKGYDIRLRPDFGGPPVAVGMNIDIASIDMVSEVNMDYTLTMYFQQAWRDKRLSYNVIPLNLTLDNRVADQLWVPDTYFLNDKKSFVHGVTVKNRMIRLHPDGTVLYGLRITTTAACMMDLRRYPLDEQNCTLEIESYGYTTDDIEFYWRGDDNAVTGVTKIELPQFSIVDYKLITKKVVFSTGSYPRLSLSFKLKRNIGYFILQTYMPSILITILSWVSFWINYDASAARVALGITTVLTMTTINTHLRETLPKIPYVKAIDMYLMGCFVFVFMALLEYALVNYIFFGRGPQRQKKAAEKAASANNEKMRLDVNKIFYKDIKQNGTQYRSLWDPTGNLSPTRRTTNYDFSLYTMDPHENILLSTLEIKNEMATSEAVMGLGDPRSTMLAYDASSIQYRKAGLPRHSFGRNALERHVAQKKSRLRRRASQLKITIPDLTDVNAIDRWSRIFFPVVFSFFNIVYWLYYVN
T1 sequence (P18507 40-475): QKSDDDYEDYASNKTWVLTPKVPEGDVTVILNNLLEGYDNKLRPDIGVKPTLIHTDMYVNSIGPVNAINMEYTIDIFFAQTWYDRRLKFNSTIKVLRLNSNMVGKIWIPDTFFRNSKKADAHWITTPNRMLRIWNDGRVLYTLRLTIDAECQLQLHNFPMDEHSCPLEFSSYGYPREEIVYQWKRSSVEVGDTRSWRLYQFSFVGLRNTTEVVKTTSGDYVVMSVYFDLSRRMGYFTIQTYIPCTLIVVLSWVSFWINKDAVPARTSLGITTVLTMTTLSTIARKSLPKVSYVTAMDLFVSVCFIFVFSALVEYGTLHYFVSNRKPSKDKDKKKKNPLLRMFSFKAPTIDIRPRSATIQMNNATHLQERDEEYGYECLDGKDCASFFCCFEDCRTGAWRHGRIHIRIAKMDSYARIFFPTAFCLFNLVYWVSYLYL

Turning to `Cc1ccc2nc(-c3ccc(F)cc3)c(CC(=O)N3CC(C)NC(C)C3)n2c1` (stereo not shown) [Compound 6, 1-(3,5-Dimethylpiperazin-1-yl)-2-[2-(4-fluorophenyl)-6-methylimidazo[1,2-a]pyridin-3-yl]ethan-1-one], the “Reduction of intracellular calcium levels” value with SH-SY5Y cells [1] turned out to be 28%. For the same molecule, the “t0,5 HLMs” value in data set [2] was above 60 min. In addition, the amount remaining at 0.25 h in data set [2] (human, liver microsomes, pH 7.4, after 15 min of biotransformation, read-out: % remaining of the parent compound HLMs) was determined as 74%; in [4] (rat, liver microsomes, pH 7.4, after 15 min of biotransformation, read-out: % remaining of the parent compound RLMs), 70%; in data set [7] (mouse, liver microsomes, pH 7.4, after 15 min of biotransformation, read-out: % remaining of the parent compound MLMs), 68%. Moreover, the microsomal CLint was below 40 µL/min/mg in data set [2] (human, liver microsomes, pH 7.4, read-out: Clint HLMs); below 40 µL/min/mg in data set [4] (rat, liver microsomes, pH 7.4, read-out: Clint RLMs); below 40 µL/min/mg in data set [7] (mouse, liver microsomes, pH 7.4, read-out: Clint MLMs). Also, the “X [%], percentage of live cells, PrestoBlue Assay (per cent of vehicle DMSO)” value is 17% in the data set on SH-SY5Y cells [3] (1E-05 M); 16% in the data set with SH-SY5Y cells [3] (1E-06 M); 17% with SH-SY5Y cells [3] (1E-07 M); 18% in the data set on SH-SY5Y cells [3] (1E-08 M); 17% in the data set with SH-SY5Y cells [3] (1E-09 M); 17% in the data set with SH-SY5Y cells [3] (3E-05 M). Besides, the “X [%], percentage of live cells, PrestoBlue Assay (per cent of vehicle DMSO)” value with SH-SY5Y cells [3] (3E-06 M) was 16%. Further, in data set [4], the “t0,5 RLMs” value amounted to 44 min. Moreover, the “Decrease of ROS levels” value with SH-SY5Y cells [5] is reported as 32%. The “X [%], percentage of dead cells, ToxiLight Assay (per cent of control with whole lysis cells)” value with SH-SY5Y cells [6] (1E-04 M) is 74%; in the data set with SH-SY5Y cells [6] (1E-05 M), 93%; in the data set with SH-SY5Y cells [6] (1E-06 M), 109%; with SH-SY5Y cells [6] (1E-07 M) it was 97%; in the data set on SH-SY5Y cells [6] (1E-08 M) it was 108%; with SH-SY5Y cells [6] (1E-09 M), 101%. In addition, the “X [%], percentage of dead cells, ToxiLight Assay (per cent of control with whole lysis cells)” value was found to be 87% with SH-SY5Y cells [6] (3E-05 M) and 105% with SH-SY5Y cells [6] (3E-06 M). Besides, the EC50 at α1β2γ2 GABA-A receptor came to 872 ± 77 nM. Moreover, the “t0,5 MLMs” value in data set [7] is 58 min. The Papp A→B at 10 μM in data set [8] (MDCK-MDR1, pH 7.4) amounted to 14.5 ×10⁻⁶ cm/s. Moreover, in data set [8] (MDCK-MDR1, pH 7.4), the Papp B→A at 10 μM was 24.6 ×10⁻⁶ cm/s. Further, the efflux ratio at 10 μM in [8] (MDCK-MDR1, pH 7.4, Efflux ratio (Paap B–A/A–B), pH 7.4/7.4, 6 and 17 at 10 μM) came out at 1.68. Also, the “Substrate for P-glycoprotein (P-gp) efflux” value with MDR1-MDCKII cell line was “possible substrate”.

Regarding `Cc1ccc(-c2nc3ccc(C)cn3c2CC(=O)N(C)C)cc1` [zolpidem, reference compound], in the data set with SH-SY5Y cells [1], the “Reduction of intracellular calcium levels” value came to 47%. Besides, the Ki on GABA-A receptor is 37.8 ± 2.7 nM. Also, in “PAMPA permeability assay”, the “Permeability Pe ± SD” value is 21.6 ± 1.26 ·10^–6 cm/s. For the same molecule, the “X [%], percentage of dead cells, ToxiLight Assay (per cent of control with whole lysis cells)” value is 71% in the data set on SH-SY5Y cells [6] (1E-04 M); 92% in the data set with SH-SY5Y cells [6] (1E-05 M); 98% with SH-SY5Y cells [6] (1E-06 M); 100% with SH-SY5Y cells [6] (1E-07 M); 101% in the data set on SH-SY5Y cells [6] (1E-08 M); 100% in the data set with SH-SY5Y cells [6] (1E-09 M). Moreover, the results for the “X [%], percentage of dead cells, ToxiLight Assay (per cent of control with whole lysis cells)” value in the data set with SH-SY5Y cells [6] (3E-05 M) and in the data set with SH-SY5Y cells [6] (3E-06 M) were 90% and 96%, respectively. The “plasma half-life (t0,5) in humans” value in data set [9] is 2–3 h and ≈ 2 h.
